Experimental data from US10939692B2, “Method for culturing aquatic animals with aspartyl-dipeptides” (Cysal GmbH, priority 2015, dated 2021).

What was measured:
Assay type in all cases: in vivo
Clarias gariepinus = test: Aquaculture screening experiment, African catfish growth on arginine-limited basal diet; conditions: after four months
Excerpt: (§1) Nearly all of the […] species relevant to aquaculture belong to three supra-orders: Ostariophysi ([…], catfish, and allies), Protacanthopterygii (e.g. pike, trouts and salmon), and Acanthopterygii (around 50% of all fish species, including all […], flatfish, tuna, etc.). In order to cover as much of the phylogenetic range as possible, fish species were chosen from each of these supra-orders (Ostariophysi; Clarias gariepinus, Protacanthopterygii; Oncorhychus mykiss, Acanthopterygii; Oreochromis niloticus). Additionally, kuruma shrimp (Marsupenaeus japonicus) was chosen as a representative species of crustacean due to its significance in the high-end market. At the end of the experiment, the individual weights were recorded and the data analyzed statistically. All experiments started with young fry or postlarvae. All species except trout were housed during the experiments in parallel recirculation systems of fresh water. Marsupenaeus japonicus shrimp were maintained in seawater. Oreochromis niloticus and Clarias gariepinus were housed in 200-L tanks filtered by a commercial pond filter. Trout were housed in a smaller system composed of 70-l tanks connected in series to account for the species' higher oxygen demand and preference for stronger current. Water quality (oxygen levels, nitrite, and nitrate) was monitored weekly. Partial water replacements were performed if the desired levels were exceeded. (<3 mg O2/l, detectable nitrite, >25 mg/l nitrate). In order to examine the efficiency of dipeptide products after as feed supplements for aquaculture, β-L-aspartyl-arginine as obtained in Example 1 was used in combination with basal arginine-limited diets. The latter diets were supplemented with the said dipeptide products to a concentration of 1.25 or 2.5% (wt/wt), or with corresponding isonitrogenous concentrations of an aspartic acid-arginine mixture (to determine the effect of free amino acids alone). Basal diets were formulated from individual components in common use in the aquaculture feed industry to ensure realistic conditions. […]

Marsupenaeus japonicus = test: Aquaculture screening experiment, kuruma shrimp growth on arginine-limited basal diet; conditions: after two months
Excerpt: Nearly all of the […] species relevant to aquaculture belong to three supra-orders: Ostariophysi ([…], catfish, and allies), Protacanthopterygii (e.g. pike, trouts and salmon), and Acanthopterygii (around 50% of all fish species, including all […], flatfish, tuna, etc.). In order to cover as much of the phylogenetic range as possible, fish species were chosen from each of these supra-orders (Ostariophysi; Clarias gariepinus, Protacanthopterygii; Oncorhychus mykiss, Acanthopterygii; Oreochromis niloticus). Additionally, kuruma shrimp (Marsupenaeus japonicus) was chosen as a representative species of crustacean due to its significance in the high-end market. At the end of the experiment, the individual weights were recorded and the data analyzed statistically. All experiments started with young fry or postlarvae. […] Water quality (oxygen levels, nitrite, and nitrate) was monitored weekly. […] Basal diet composition for Tilapia and Kuruma shrimp contained a calculated arginine content of about 1.35% (of diet) which is lower than the minimum requirements of both Tilapia and Kuruma shrimp: corn 40%, soybean meal 21%, rice polishings 14%, gluten 11%, wheat bran 5%, herring meal 5%, monocalcium phosphate 0.8%, limestone 0.7%, L-lysine HCl 0.7%, fish oil 0.5%, vitamin mineral premix 0.3%, sodium bicarbonate 0.15%, salt 0.15%, pellet binder 0.05%. […]

Oncorhynchus mykiss = test: Aquaculture screening experiment, trout growth on arginine-limited basal diet; conditions: after four months
Excerpt: as §1

Oreochromis niloticus = test: Aquaculture screening experiment, Tilapia growth on arginine-limited basal diet; conditions: after two months
Excerpt: Nearly all of the […] species relevant to aquaculture belong to three supra-orders: Ostariophysi ([…], catfish, and allies), Protacanthopterygii (e.g. pike, trouts and salmon), and Acanthopterygii (around 50% of all fish species, including all […], flatfish, tuna, etc.). In order to cover as much of the phylogenetic range as possible, fish species were chosen from each of these supra-orders (Ostariophysi; Clarias gariepinus, Protacanthopterygii; Oncorhychus mykiss, Acanthopterygii; Oreochromis niloticus). Additionally, kuruma shrimp (Marsupenaeus japonicus) was chosen as a representative species of crustacean due to its significance in the high-end market. At the end of the experiment, the individual weights were recorded and the data analyzed statistically. All experiments started with young fry or postlarvae. All species except trout were housed during the experiments in parallel recirculation systems of fresh water. Marsupenaeus japonicus shrimp were maintained in seawater. Oreochromis niloticus and Clarias gariepinus were housed in 200-L tanks filtered by a commercial pond filter. Trout were housed in a smaller system composed of 70-l tanks connected in series to account for the species' higher oxygen demand and preference for stronger current. Water quality (oxygen levels, nitrite, and nitrate) was monitored weekly. Partial water replacements were performed if the desired levels were exceeded. (<3 mg O2/l, detectable nitrite, >25 mg/l nitrate). […] Basal diet composition for Tilapia and Kuruma shrimp contained a calculated arginine content of about 1.35% (of diet) which is lower than the minimum requirements of both Tilapia and Kuruma shrimp: corn 40%, soybean meal 21%, rice polishings 14%, gluten 11%, wheat bran 5%, herring meal 5%, monocalcium phosphate 0.8%, limestone 0.7%, L-lysine HCl 0.7%, fish oil 0.5%, vitamin mineral premix 0.3%, sodium bicarbonate 0.15%, salt 0.15%, pellet binder 0.05%. […]

[1] = tested on: Atlantic salmon (Salmo salar L.); test: Salmon nutrition experiment (bioavailability, arginine retention, growth, safety)
Excerpt: The objective of the experiment was to examine the in vivo bioavailability of the above described “β-L-aspartyl-R” dipeptides in fish for the first time and consequently to determine their applicability as a substitute of free amino acids sources in Atlantic salmon (Salmo salar L.) nutrition. Therefore, varying supplementation levels of β-L-aspartyl-L-arginine in contrast to a mixture of free amino acids L-arginine and L-aspartic acid were compared.
315 Atlantic salmon (96.33 g±11.47 g; Danish Salmon AS, Hirtshals, DK) were acclimatized for 14 d in the experimental rearing system. The tanks of the system were part of a recirculation system (3.5 m^3 water volume, turnover rate 2 h^−1). The water purification system consisted of a mechanical filter, a moving bed filter, and a protein skimmer. Water quality parameters were maintained within a safe range for the fish (7.2-7.6 pH; GMH 3530, Digital pH-/mV-/Thermometer, Greisinger electronic, D; 22.5±0.3° C., 8.5±0.4 mg/l O2; Handy Polaris; Oxy-Guard International A/S, Birkerod, Denmark; <0.4 mg/l NH4—N; <0.24 mg/l NO2—N; Microquant test kit for NH4 and NO2; Merck KgaA, Darmstadt, Germany). The light conditions were set to 14 h/10 h light/dark cycle. During acclimatization fish were fed a commercial salmon feed (Aller Gold 4 mm; AllerAqua A/S, Christiansfeld, Denmark). The fish were reared in 150 l aquaria. Triplicate fish groups (3×15) were fed to apparent satiation twice a day over a period of 10 weeks.
In order to fulfill the nutritional demands of Atlantic salmon (except for arginine content), the different concentrations of the test substances were added to a basal diet which was produced with the following common ingredients used for fish nutrition: Fish meal (Clupea sp.) 9.91%, Blood meal 1.93%, Casein 3.05%, Corn gluten 20.80%, Wheat gluten 22.09%, Biolysine™ 1.48%, Wheat starch 25.43%, Fish oil 11.13%, Ca2PO4 0.46%, Vit/min premix 0.93%, TiO2 0.93%, and Carboxymethyl cellulose ad 100% (after adding the test supplements). The experiment was carried out with the resulting 7 dietary treatments:
Samples of all experimental groups were analyzed for arginine retention in the lab of LUFA in Kiel. […] Crude protein content (N×6.25) was determined by the Kjeldahl method, crude lipid content after hydrolysis with hydrochloric acid followed by a petroleum ether extraction using a Soxhlet extraction system, DM after drying at 103° C. until constant weight, and ash content after 4 h incineration at 550° C. in a combustion oven (P300; Nabertherm, Lilienthal, Germany). Furthermore, gross energy was measured in a bomb calorimeter (C 200; IKA, Staufen, Germany).
The statistical analyses were performed using SPSS 21.0 for Windows (SPSS Inc., Chicago, U.S.). […] Data were analyzed for variance homogeneity by Levene (p<0.05). […]

Structure (SMILES): N=C(N)NCCC[C@H](NC(=O)C[C@H](N)C(=O)O)C(=O)O [Asp-Arg, β-L-aspartyl-L-arginine]
- mean (wt in g) (Clarias gariepinus; 1.25% (wt/wt) supplement in basal diet): 6.63 g
- mean (wt in g) (Clarias gariepinus; 2.5% (wt/wt) supplement in basal diet): 8.42 g
- average final weight, % of the control (Clarias gariepinus; addition of dipeptides): around 144 % of the control
- average weight versus amino acid feeding and control (Marsupenaeus japonicus; 1.25%): higher than that of the amino acid feeding and that of the control group
- mean (Marsupenaeus japonicus; 1.25% supplement in basal diet, average weight): 0.35 g
- mean (wt in g) (Oncorhynchus mykiss; 1.25% supplement in basal diet): 13.63 g
- mean (wt in g) (Oncorhynchus mykiss; 2.5% supplement in basal diet): 15.33 g
- average final weight, % of the control (Oncorhynchus mykiss; feed containing 2.5% dipeptides): around 115 % of the control
- mean (wt in g) (Oreochromis niloticus; 1.25% supplement in basal diet): 1.84 g
- mean (wt in g) (Oreochromis niloticus; 2.5% supplement in basal diet): 2.03 g
- final weight, % of the control (Oreochromis niloticus; feed supplemented with 2.5% dipeptide): over 120 % of the control
- safety (mortalities, behavior, postmortem inspection, tissue and blood analysis) ([1]; Atlantic salmon, 0.2-0.6% in diet, 10 weeks): safe for fish
- weight gain at the highest level of supplementation ([1]; Atlantic salmon, 0.6% supplementation, 10 weeks (FIG. 1)): not seen
- whole body protein level ([1]; Atlantic salmon, 10 weeks, compared to the free amino acid groups): higher body protein level
- bioavailability of the dipeptide form versus the free form ([1]; in vivo): five-fold better
